Results: patent US10858347B2, “Multicyclic compounds and uses thereof” (Karyopharm Therapeutics Inc., priority 2015, dated 2020)

How the values were obtained:
3T3 cells = test: MTT cell proliferation assay, 3T3 cells; type: cell-based; settings: NIH3T3; 3T3 cells (standard fibroblast cells, Swiss mouse embryo); approximately 64-72 hours incubation
Experimental: (§1) The MTT cell proliferation assay was used to study the cytotoxic properties of the compounds. The assay was performed according to the method described by Roche Molecular Biochemicals, with minor modifications. The assay is based on the cleavage of the tetrazolium salt, MTT, in the presence of an electron-coupling reagent. The water-insoluble formazan salt produced must be solubilized in an additional step. Cells grown in a 96-well tissue culture plate were incubated with the MTT solution for approximately 4 hours. After this incubation period, a water-insoluble formazan dye formed. After solubilization, the formazan dye was quantitated using a scanning multi-well spectrophotometer (ELISA reader). […] The cells were seeded at 5,000-10,000 cells in each well of 96-well plate in 100 μL of fresh culture medium and were allowed to attach overnight. The stock solutions of the compounds were diluted in 100 μL cell culture medium to obtain eight concentrations of each test compound, ranging from 1 nM to 30 μM. […] All optical densities were measured at 490 nm using a Vmax Kinetic Microplate Reader (Molecular Devices). In most cases, the assay was performed in duplicate and the results were presented as a mean percent inhibition to the negative control±SE. The following formula was used to calculate the percent of inhibition: Inhibition (%)=(1−(ODo/OD))×100.
(§2) The compounds were tested against MS751, Z138 and 3T3 cells. The MS751 cell line is derived from a metastasis to lymph node of human cervix from a patient diagnosed with squameous cell carcinoma of the cervix. The Z138 cell line is a mature B-cell acute lymphoblastic leukemia cell line derived from a patient with chronic lumphocytic leukemia. 3T3 cells are standard fibroblast cells; they were originally isolated from Swiss mouse embryo tissue.

Z138 cells = test: MTT cell proliferation assay, Z138 cells; type: cell-based, human; settings: Homo sapiens, Z-138; Z138 cells (mature B-cell acute lymphoblastic leukemia cell line); approximately 64-72 hours incubation
Experimental: as §1, §2

| SMILES | IC50 (3T3 cells) [µM] | IC50 (Z138 cells) [µM] |
| --- | --- | --- |
| Nc1ccc(CNC(=O)NCc2cc3cc(-c4ccc(C(=O)N5CCC(F)(F)CC5)cn4)cc(-c4ccc(F)cc4)c3o2)cn1 [Compound 116, 1-((6-aminopyridin-3-yl)methyl)-3-((5-(5-(4,4-difluoropiperidine-1-carbonyl)pyridin-2-yl)-7-(4-fluorophenyl)benzofuran-2-yl)methyl)urea] | 0.1 to 5 | < 0.1 |
| CN(Cc1cc2cc(-c3ccc(C(=O)N4CCC(F)(F)CC4)cc3)cc(-c3ccc(F)cc3)c2o1)C(=O)N1Cc2ccncc2C1 [Compound 109, N-((5-(4-(4,4-difluoropiperidine-1-carbonyl)phenyl)-7-(4-fluorophenyl)benzofuran-2-yl)methyl)-N-methyl-1H-pyrrolo[3,4-c]pyridine-2(3H)-carboxamide] | 0.1 to 5 | < 0.1 |
| O=C(NCC1Cc2cc(-c3ccc(C(=O)N4CCC(F)(F)CC4)cc3)cc(-c3ccc(F)cc3)c2O1)N1Cc2ccncc2C1 (centres unmarked) [Compound 122, N-((5-(4-(4,4-difluoropiperidine-1-carbonyl)phenyl)-7-(4-fluorophenyl)-2,3-dihydrobenzofuran-2-yl)methyl)-1,3-dihydro-2H-pyrrolo [3,4-c]pyridine-2-carboxamide] | < 0.1 | < 0.1 |
| O=C(NCc1ccc(-c2ccc(-c3ccc(C(=O)N4CCC(F)(F)CC4)cc3)cc2-c2ccc(F)cc2)o1)N1Cc2ccncc2C1 [Compound 120, N-((5-(4-(4,4-difluoropiperidine-1-carbonyl)-4″-fluoro-[1,1′:3′,1″-terphenyl]-4′-yl)furan-2-yl)methyl)-1,3-dihydro-2H-pyrrolo[3,4-c]pyridine-2-carboxamide] | > 10 | < 0.1 |
| Nc1ccc(CNC(=O)NCc2cc3cc(-c4ccc(C(=O)N5CCC(F)(F)CC5)cc4)cc(-c4ccc(F)cc4)c3s2)cn1 [Compound 114, 1-((6-aminopyridin-3-yl)methyl)-3-((5-(4-(4,4-difluoropiperidine-1-carbonyl)phenyl)-7-(4-fluorophenyl)benzo[b]thiophen-2-yl)methyl)urea] | > 10 | 5 to 10 |
| O=C(NCc1cc2cc(-c3ccc(C(=O)N4CCC(F)(F)CC4)cc3)cc(C(F)(F)F)c2o1)N1Cc2ccncc2C1 [Compound 105, N-((5-(4-(4,4-difluoropiperidine-1-carbonyl)phenyl)-7-(trifluoromethyl)benzofuran-2-yl)methyl)-1H-pyrrolo[3,4-c]pyridine-2(3H)-carboxamide] | > 10 | 0.1 to 5 |
| Nc1cc2c(cn1)CN(C(=O)NCc1cc3cc(-c4ccc(C(=O)N5CCC(F)(F)CC5)cc4)cc(-c4ccc(F)cc4)c3o1)C2 [Compound 115, 6-amino-N-((5-(4-(4,4-difluoropiperidine-1-carbonyl)phenyl)-7-(4-fluorophenyl)benzofuran-2-yl)methyl)-1H-pyrrolo[3,4-c]pyridine-2(3H)-carboxamide] | 0.1 to 5 | < 0.1 |
| Nc1ccc(CNC(=O)NCc2cc3cc(-c4ccc(C(=O)N5CCC(F)(F)CC5)cc4)cc(-c4ccc(F)cc4F)c3o2)cn1 [Compound 112, 1-((6-aminopyridin-3-yl)methyl)-3-((7-(2,4-difluorophenyl)-5-(4-(4,4-difluoropiperidine-1-carbonyl)phenyl)benzofuran-2-yl)methyl)urea] | 0.1 to 5 | < 0.1 |
| O=C(NCc1cc2cc(-c3ccc(C(=O)N4CC(F)(F)C4)cc3)cc(C(F)(F)F)c2o1)N1Cc2ccncc2C1 [Compound 106, N-((5-(4-(3,3-difluoroazetidine-1-carbonyl)phenyl)-7-(trifluoromethyl)benzofuran-2-yl)methyl)-1H-pyrrolo[3,4-c]pyridine-2(3H)-carboxamide] | > 10 | > 10 |
| Nc1ccc(CNC(=O)NCc2cc3cc(-c4ccc(C(=O)N5CC(F)(F)C5)cc4)cc(C(F)(F)F)c3o2)cn1 [Compound 117, 1-((6-aminopyridin-3-yl)methyl)-3-((5-(4-(3,3-difluoroazetidine-1-carbonyl)phenyl)-7-(trifluoromethyl)benzofuran-2-yl)methyl)urea] | > 10 | 5 to 10 |
